Reference: patent publication US11419335B2, “N-arylated analogues and uses thereof” (University of Florida Research Foundation, Incorporated, priority 2016, dated 2022)
Read-outs that look alike come from different tables or passages of the source. Marks after values point to notes of the source that are not given here.

How the values were obtained:
[1] = test system: Klebsiella pneumoniae (ATCC 13883); experiment: MIC broth microdilution, K. pneumoniae 13883; format: cell-based; conditions: Table 4
Description: (§1) The minimum inhibitory concentration (MIC) for each tested compound was determined by the broth microdilution method as recommended by the Clinical and Laboratory Standards Institute (CLSI). In a 96-well plate, eleven two-fold serial dilutions of each compound were made in a final volume of 100 μL Luria Broth. Each well was inoculated with ˜10^5 bacterial cells at the initial time of incubation, prepared from a fresh log phase culture (OD600 of 0.5 to 1.0 depending on bacterial strain). The MIC was defined as the lowest concentration of compound that prevented bacterial growth after incubating 16 to 18 hours at 37° C. (MIC values were supported by spectrophotometric readings at OD600). DMSO served as our vehicle and negative control in each microdilution MIC assay. DMSO was serially diluted with a top concentration of 1% v/v.
as §1, with “for each compound was” for “for each tested compound was”, “Standards Institute (CLSI).^6 In a” for “Standards Institute (CLSI). In a”, “concentration of test compound that” for “concentration of compound that”, “37° C. The concentration range tested for each compound during this study was 0.10 to 100 μM. DMSO served” for “37° C. (MIC values were supported by spectrophotometric readings at OD600). DMSO served”, “1% v/v. All MIC values were obtained from a minimum of three independent experiments.” for “1% v/v.”

[2] = test system: MRSA BAA-1707; experiment: MIC broth microdilution, MRSA BAA-1707; format: cell-based, Staphylococcus aureus; conditions: for MIC: read-out: MIC MRSA BAA-1707; for MIC MRSA 1707: Table 4
Description: as §1, with “The MIC was defined as the lowest concentration of compound that prevented bacterial growth after incubating 16 to 18 hours at 37° C.” left out
(§2) Each well was inoculated with ˜10^5 bacterial cells at the initial time of incubation, prepared from a fresh log phase culture (OD600 of 0.5 to 1.0 depending on bacterial strain). […] The concentration range tested for each compound during this study was 0.10 to 100 μM. DMSO served as our vehicle and negative control in each microdilution MIC assay. DMSO was serially diluted with a top concentration of 1% v/v. All MIC values were obtained from a minimum of three independent experiments.

[3] = test system: methicillin-resistant Staphylococcus epidermidis (MRSE strain ATCC 35984); experiment: MIC broth microdilution, MRSE 35984; format: cell-based; conditions: for MIC MRSE 35984: Table 4
Description: as §1
as §1, with “for each compound was” for “for each tested compound was”, “Standards Institute (CLSI).^6 In a” for “Standards Institute (CLSI). In a”, “concentration of test compound that” for “concentration of compound that”, “37° C. The concentration range tested for each compound during this study was 0.10 to 100 μM. DMSO served” for “37° C. (MIC values were supported by spectrophotometric readings at OD600). DMSO served”, “1% v/v. All MIC values were obtained from a minimum of three independent experiments.” for “1% v/v.”

[4] = test system: Pseudomonas aeruginosa (PAO1); experiment: MIC broth microdilution, PAO1; format: cell-based
Description: as §1
as §1, with “for each compound was” for “for each tested compound was”, “Standards Institute (CLSI).^6 In a” for “Standards Institute (CLSI). In a”, “concentration of test compound that” for “concentration of compound that”, “37° C. The concentration range tested for each compound during this study was 0.10 to 100 μM. DMSO served” for “37° C. (MIC values were supported by spectrophotometric readings at OD600). DMSO served”, “1% v/v. All MIC values were obtained from a minimum of three independent experiments.” for “1% v/v.”

[5] = test system: methicillin-sensitive Staphylococcus aureus ATCC 29213; experiment: MIC broth microdilution, S. aureus 29213; format: cell-based
Description: as §1, with “The MIC was defined as the lowest concentration of compound that prevented bacterial growth after incubating 16 to 18 hours at 37° C.” left out
as §2

[6] = test system: vancomycin-resistant Enterococcus faecium (VRE strain ATCC 700221); experiment: MIC broth microdilution, VRE 700221; format: cell-based; conditions: for MIC VRE 700221: Table 4
Description: as §1
as §1, with “for each compound was” for “for each tested compound was”, “Standards Institute (CLSI).^6 In a” for “Standards Institute (CLSI). In a”, “concentration of test compound that” for “concentration of compound that”, “37° C. The concentration range tested for each compound during this study was 0.10 to 100 μM. DMSO served” for “37° C. (MIC values were supported by spectrophotometric readings at OD600). DMSO served”, “1% v/v. All MIC values were obtained from a minimum of three independent experiments.” for “1% v/v.”

[7] = test system: Acinetobacter baumannii (ATCC 1794); experiment: MIC broth microdilution, A. baumannii 1794; format: cell-based; conditions: for MIC A. bau. 1794: Table 4
Description: as §1
as §1, with “for each compound was” for “for each tested compound was”, “Standards Institute (CLSI).^6 In a” for “Standards Institute (CLSI). In a”, “concentration of test compound that” for “concentration of compound that”, “37° C. The concentration range tested for each compound during this study was 0.10 to 100 μM. DMSO served” for “37° C. (MIC values were supported by spectrophotometric readings at OD600). DMSO served”, “1% v/v. All MIC values were obtained from a minimum of three independent experiments.” for “1% v/v.”

[8] = test system: Escherichia coli clinical isolate (UAEC-1); experiment: MIC broth microdilution, UAEC-1; format: cell-based; conditions: Table 4
Description: as §1
as §1, with “for each compound was” for “for each tested compound was”, “Standards Institute (CLSI).^6 In a” for “Standards Institute (CLSI). In a”, “concentration of test compound that” for “concentration of compound that”, “37° C. The concentration range tested for each compound during this study was 0.10 to 100 μM. DMSO served” for “37° C. (MIC values were supported by spectrophotometric readings at OD600). DMSO served”, “1% v/v. All MIC values were obtained from a minimum of three independent experiments.” for “1% v/v.”

[9] = test system: methicillin-resistant Staphylococcus aureus MRSA-2 (clinical isolate); experiment: MIC broth microdilution, MRSA-2; format: cell-based; conditions: for MIC: read-out: MIC MRSA-2
Description: as §1
as §1, with “for each compound was” for “for each tested compound was”, “Standards Institute (CLSI).^6 In a” for “Standards Institute (CLSI). In a”, “concentration of test compound that” for “concentration of compound that”, “37° C. The concentration range tested for each compound during this study was 0.10 to 100 μM. DMSO served” for “37° C. (MIC values were supported by spectrophotometric readings at OD600). DMSO served”, “1% v/v. All MIC values were obtained from a minimum of three independent experiments.” for “1% v/v.”

[10] = test system: MRSA BAA-44; experiment: MIC broth microdilution, MRSA BAA-44; format: cell-based, Staphylococcus aureus
Description: as §1, with “The MIC was defined as the lowest concentration of compound that prevented bacterial growth after incubating 16 to 18 hours at 37° C.” left out
as §2

[11] = test system: SA-138 (clinical isolate); experiment: MIC broth microdilution, SA-138; format: cell-based, Staphylococcus aureus
Description: as §1, with “The MIC was defined as the lowest concentration of compound that prevented bacterial growth after incubating 16 to 18 hours at 37° C.” left out
as §2

[12] = test system: SA-129 (clinical isolate); experiment: MIC broth microdilution, SA-129; format: cell-based, Staphylococcus aureus
Description: as §1, with “The MIC was defined as the lowest concentration of compound that prevented bacterial growth after incubating 16 to 18 hours at 37° C.” left out
as §2

[13] = test system: MRSA-1 (clinical isolate); experiment: MIC broth microdilution, MRSA-1; format: cell-based, Staphylococcus aureus
Description: as §1, with “The MIC was defined as the lowest concentration of compound that prevented bacterial growth after incubating 16 to 18 hours at 37° C.” left out
as §2

[14] = test system: human red blood cells (hRBC); experiment: Hemolysis of red blood cells; format: cell-based; conditions: for RBC HC50: Table 4, concentration required to lyse 50% of red blood cells
Description: The washing was repeated three times with the buffer. In a 96-well plate, test compounds were added to the buffer from DMSO stocks. […] The plate was then incubated for 1 hour at 37° C. After incubation, the plate was centrifuged for 5 minutes at 3,500 rpm. Then 80 μL of the supernatant was transferred to another 96-well plate and the optical density (OD) was read at 405 nm. DMSO served as our negative control (0% hemolysis) while Triton X served as our positive control (100% hemolysis). […] All reported data correspond to three independent experiments. Ten-point dose-response curves were generated in 96-well plates to determine 50% hemolysis (HC50 values) of red blood cells.
The washing was repeated three times with the buffer. In 96-well plate, the test compounds were added to the buffer. Then 50 μL of 2% of hRBCs in the buffer were added to the test plate to make the final concentrations ranging from 0.2 to 200 μM of each test compound. The plate was then incubated for 1 hour at 37° C. After incubation, the plate was centrifuged for 5 minutes at 3500 rpm and then 80 μL of the supernatant was transferred to another 96-well plate and the Optical Density (OD) was read at 405 nm. DMSO served as our negative control (0% haemolysis) and Triton X served as our positive control (100% haemolysis). The HC50 (concentration of test compound required to lyse red blood cells by 50%) was calculated by plotting the dose-response curve (not shown) with Graphpad Prism 6.0. All data were obtained from three independent haemolysis experiments.

[15] = test system: SA-156 (clinical isolate); experiment: MIC broth microdilution, SA-156; format: cell-based, Staphylococcus aureus
Description: as §1, with “The MIC was defined as the lowest concentration of compound that prevented bacterial growth after incubating 16 to 18 hours at 37° C.” left out
as §2

[16] = test system: MRSA-2 biofilms; experiment: Calgary Biofilm Device assay (MBC/MBEC), MRSA-2; format: cell-based, Staphylococcus aureus; conditions: Table 2A; CBD assay
Description: The lid of the Calgary device was then removed, washed and transferred to another 96-well plate containing 2-fold serial dilutions of the test compounds (the “challenge plate”). The total volume of media with compound in each well in the challenge plate is 150 μL. […] The lid was then removed from the challenge plate and MBC/MBEC values were determined using different final assays. […] The MBC values were determined as the concentration giving a lack of visible bacterial growth (i.e., turbidity). […] In select experiments, pegs from the Calgary device were removed from lead biofilm eradicators after final incubation, sonicated for 30 minutes in PBS and plated out to determine biofilm cell killing of lead biofilm-eradicating agents (i.e., colony forming unit per milliliter, CFU/mL).
Using a Calgary Biofilm Device, bacterial biofilms are established on pegs suspended to the bottom of a 96-well plate lid. Following biofilm establishment on lid pegs, lids are then transferred to new 96-well plates containing serial dilutions of test compound and allowed to incubate. After compound treatment, 96-well plate lids with pegs are once again transferred to 96-well plates containing fresh media. During this final phase of the assay, viable biofilms will grow and disperse planktonic cells into the media where they will grow and give a turbid well result. Conversely, wells that have no growth are a result of pegs that had eradicated bacterial biofilms. The lowest concentration at which no turbidity is observed is the minimum biofilm eradication concentration (MBEC). Using the Calgary Biofilm Device, both minimum biofilm eradication concentrations and minimum bactericidal concentrations (MBC) for planktonic bacterial can be determined using one assay from a single bacterial culture (FIG. 3A).

[17] = test system: SA-147 (clinical isolate); experiment: MIC broth microdilution, SA-147; format: cell-based, Staphylococcus aureus
Description: as §1, with “The MIC was defined as the lowest concentration of compound that prevented bacterial growth after incubating 16 to 18 hours at 37° C.” left out
as §2

CCCCCCCCCCCCCCCCn1cc[n+](-c2ccc(Cl)cc2)c1C.[Br-] [Compound 6]
3.13 µM: MIC ([2]; Table 1B) | MIC ([2]; Table 3) | MIC MRSA 1707 [2] | MIC ([5]; Table 1B) | MIC ([5]; Table 3) | MIC ([9]; Table 1B) | MIC ([9]; Table 3) | MIC MRSA-2 ([9]; Table 4)
6.25 µM: MIC K. pneu. 13883 [1] | MIC UAEC-1 [8]
1.17a micromolar: MIC MRSE 35984 [3]
1.56 µM: MIC VRE 700221 [6]
>100 µM: MIC PAO1 ([4]; Table 4)
12.5 µM: MIC A. bau. 1794 [7]

CCCCCCCCCCCCCCCCn1c(C)[n+](Cc2ccccc2)c2ccccc21.[Br-] [Compound 25]
6.25 µM: MIC ([11]; Table 1B) | MIC ([11]; Table 3) | MIC ([17]; Table 1B) | MIC ([17]; Table 3)
10.4 µM: HC50 ([14]; Table 1A) | RBC HC50 [14]
188 µM: MRSA-2 MBEC [16]
1.56 µM: MIC E. faecium VRE 700221 ([6]; Table 1A) | VRE MIC ([6]; Table 2A) | MIC VRE 700221 [6]
> 100 µM: MIC PAO1 ([4]; Table 1A)
9.38a micromolar: MIC MRSA 1707 [2]
250 µM: MRSA-2 MBC [16]
12.5 µM: MIC ([2]; Table 1B) | MIC ([2]; Table 3) | MIC ([10]; Table 1B) | MIC ([10]; Table 3) | MIC ([13]; Table 1B) | MIC ([13]; Table 3) | MIC ([15]; Table 1B) | MIC ([15]; Table 3) | MIC ([5]; Table 1B) | MIC ([5]; Table 3) | MIC ([9]; Table 1B)
>100 µM: MIC PAO1 ([4]; Table 4) | MIC A. bau. 1794 [7]
3.13 µM: MIC ([12]; Table 1B) | MIC ([12]; Table 3) | MIC S. epidermidis MRSE 35984 ([3]; Table 1A) | MIC ([3]; Table 2A, read-out: MRSE 35984 MIC) | MIC MRSE 35984 [3] | MIC MRSA-2 ([9]; Table 1A) | MRSA-2 MIC ([9]; Table 2A) | MIC ([9]; Table 3) | MIC MRSA-2 ([9]; Table 4)
9.38^a μM: MRSA BAA-1707 MIC ([2]; Table 2A)
>100: MIC A. baumannii 1794 ([7]; Table 1A, in µM)

CCCCCCCCCCCCCCCCn1cc[n+](Cc2ccccc2C[n+]2ccn(CCCCCCCCCCCCCCCC)c2C)c1C.[Br-].[Br-] [Compound 29]
34.5 µM: RBC HC50 [14]
>100 µM: MIC K. pneu. 13883 [1] | MIC MRSA 1707 [2] | MIC MRSE 35984 [3] | MIC PAO1 ([4]; Table 4) | MIC VRE 700221 [6] | MIC A. bau. 1794 [7] | MIC UAEC-1 [8] | MIC MRSA-2 ([9]; Table 4)
